Experimental data as given in ChEMBL document CHEMBL1201862, “PubChem BioAssay data set” (2004).
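Interpolation was linear, between the two tested concentrations surrounding the appropriate level; five concentrations were tested over 48 hours in 96-well plates. At the GI50, growth is halved.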 Activity calls are given as the source filed them. Cut-off read from the data, not from the text of the source: active = GI50 up to about 1.1 µM and inactive = higher.

Columns and labels:
Experiment in all cases: inhibition of tumour cell growth, NCI panel, 48 h
HOP-62 = system: HOP-62
NCI-H23 = system: NCI-H23
TK-10 = system: TK-10
786-0 = system: 786-0
SNB-75 = system: SNB-75
HCC 2998 = system: HCC 2998
SF-295 = system: SF-295
IGROV-1 = system: IGROV-1
SK-MEL-5 = system: SK-MEL-5
CCRF-CEM = system: CCRF-CEM
SNB-19 = system: SNB-19
EKVX = system: EKVX
SR = system: SR
U-251 = system: U-251
LOX IMVI = system: LOX IMVI
OVCAR-8 = system: OVCAR-8
UACC-257 = system: UACC-257
MDA-MB-435 = system: MDA-MB-435

Measured: GI50

COc1ccc2c3c([nH]c(=O)c2c1C(=O)O)-c1ccccc1CC3
inactive: HOP-62 > 100 µM | NCI-H23 > 100 µM | TK-10 > 100 µM | 786-0 > 100 µM | SNB-75 > 100 µM | HCC 2998 > 100 µM | SF-295 > 100 µM | IGROV-1 > 100 µM | SK-MEL-5 > 100 µM | CCRF-CEM > 100 µM | SNB-19 > 100 µM | EKVX 49.7 µM | SR > 100 µM | U-251 > 100 µM | LOX IMVI > 100 µM

Cc1ccc2c(O)cc(-c3ccc4ccccc4c3)nc2n1
inactive: HOP-62 7.13 µM | NCI-H23 4.41 µM | TK-10 8.45 µM | 786-0 3.94 µM | OVCAR-8 5.82 µM | SNB-75 2.75 µM | HCC 2998 10.8 µM | IGROV-1 2.6 µM | CCRF-CEM 3.66 µM | SNB-19 9.48 µM | EKVX 5.96 µM | SR 1.83 µM | UACC-257 5.58 µM | LOX IMVI 5.14 µM

C=C(C)[C@@]1(O)O[C@H]2C[C@@]3(C)OC(=CC3=O)/C(C)=C\[C@@H]3OC(=O)[C@@]1(C)[C@H]32
inactive: HOP-62 21.6 µM | NCI-H23 15.3 µM | TK-10 22.9 µM | 786-0 11.7 µM | OVCAR-8 27 µM | SNB-75 23.8 µM | HCC 2998 15.3 µM | SF-295 23.7 µM | IGROV-1 15 µM | SK-MEL-5 13.3 µM | MDA-MB-435 14.7 µM | CCRF-CEM 3.94 µM | SNB-19 > 58.7 µM | EKVX 29.2 µM | SR 6.97 µM | UACC-257 23.2 µM | U-251 16.1 µM | LOX IMVI 6.31 µM

COC(=O)C(/C(=N/N)C(=O)Nc1ccc(C)c(C)c1)c1nc2ccc(Cl)cc2nc1O (configuration not stated)
inactive: HOP-62 > 100 µM | NCI-H23 > 100 µM | TK-10 > 100 µM | 786-0 > 100 µM | OVCAR-8 > 100 µM | SNB-75 > 100 µM | HCC 2998 > 100 µM | SF-295 > 100 µM | IGROV-1 49.3 µM | SK-MEL-5 > 100 µM | MDA-MB-435 > 100 µM | CCRF-CEM > 100 µM | EKVX 74.5 µM | SR > 100 µM | UACC-257 > 100 µM | U-251 > 100 µM | LOX IMVI > 100 µM

CN(C)C(=S)/N=c1\ss/c(=N\C(=S)N(C)C)n1-c1cccc(Cl)c1
inactive: HOP-62 > 100 µM | NCI-H23 > 100 µM | TK-10 > 100 µM | 786-0 > 100 µM | OVCAR-8 > 100 µM | SNB-75 36.6 µM | HCC 2998 > 100 µM | SF-295 > 100 µM | IGROV-1 > 100 µM | SK-MEL-5 > 100 µM | CCRF-CEM > 100 µM | SNB-19 > 100 µM | EKVX > 100 µM | SR > 100 µM | UACC-257 > 100 µM | U-251 > 100 µM | LOX IMVI > 100 µM

O=C(Nc1nccs1)NS(=O)(=O)n1cnc2ccccc21
inactive: HOP-62 > 100 µM | NCI-H23 > 100 µM | TK-10 > 100 µM | 786-0 > 100 µM | OVCAR-8 > 100 µM | SNB-75 > 100 µM | HCC 2998 > 100 µM | SF-295 > 100 µM | IGROV-1 > 100 µM | SK-MEL-5 > 100 µM | MDA-MB-435 > 100 µM | CCRF-CEM > 100 µM | SNB-19 > 100 µM | EKVX > 100 µM | UACC-257 > 100 µM | U-251 > 100 µM
